# Results: PubChem BioAssay AID1320 (NMMLSC, 2008)
# The source made the active and inactive calls. The rule behind the calls is not given here.
# Target: Bcl-2-related protein A1 (Homo sapiens) (UniProt Q16548)
# Assay: Bfl-1/Bim complex disruptors – biochemical, multiplexed, bead-based flow cytometry, dose response (AID 1320); for percent span (inhibition): test concentration not given here
# Conditions: Bim peptide-Bfl-1 binding, fluorescence
# Chain of Bcl-2-related protein A1 (Homo sapiens) (Q16548 whole entry, looked up): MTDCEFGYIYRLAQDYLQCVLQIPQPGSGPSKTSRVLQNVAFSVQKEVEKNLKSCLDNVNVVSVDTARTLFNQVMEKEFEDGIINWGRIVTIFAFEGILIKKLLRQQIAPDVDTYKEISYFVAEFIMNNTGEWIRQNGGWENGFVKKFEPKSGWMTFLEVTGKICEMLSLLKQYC
row,SMILES,EC50
1,O=C(C1=NN(c2ccccc2)C2C(=O)N(c3ccccc3)C(=O)C12)c1ccccc1 (stereo not drawn),1.36 µM
2,CC1CC2=C(NC(=S)NC2c2cccc(F)c2)/C(=C/c2cccc(F)c2)C1 (stereo not drawn),inactive

# Same assay, conditions: Bim peptide-Bfl-1 binding, fluorescence, stronger effect = higher value
row,SMILES,percent span (inhibition)
1,Cc1ccc(-c2cc(C(=O)Nc3ccccc3C)c3ccccc3n2)o1,inactive
2,C/C(=N\NC(=O)Cc1cccn1C)c1ccc2ccccc2c1,inactive
3,CC(C)(C)OC(=O)N1CCN(C(=O)[C@H](Cc2ccc(O)cc2)n2cc(CCO)nn2)CC1,inactive
4,CCOCCCNc1nc(=S)[nH]c2cc(OC)c(OC)cc12,inactive
5,COC(=O)c1sc2nc[nH]c(=O)c2c1C,inactive
6,COP(=O)(CC(=O)O)c1ccccc1 (stereo not drawn),inactive
7,C=CCn1c(C)c(C(C)=O)c(N2CCOCC2)nc1=S,inactive
8,COc1ccccc1Cn1nnc2c(=O)[nH]c(C3CCN(C(=O)c4ccc(C)cc4)CC3)nc21,inactive
9,N/C(=N\OC(=O)CCC1CCCC1)c1ccncc1,inactive
10,CN(C)[C@@H]1C(=O)C(C(=O)NCN2CCCC2)=C(O)[C@@]2(O)C(=O)C3=C(O)c4c(O)cccc4[C@@](C)(O)C3CC12 (stereo partly drawn),inactive
11,CCn1c(C)c(/C=N/Nc2nc3ccccc3s2)c2ccccc21,inactive
12,COc1ccccc1-n1c(SCC(=O)N2CCc3ccccc32)nc2c(c1=O)SCC2,inactive
13,S=C(Nc1ccc(N2CCOCC2)cc1)Nc1ccc2nc(-c3ccco3)c(-c3ccco3)nc2c1,inactive
14,CS(=O)(=O)NN1C(=O)c2ccccc2NC1c1cccc2cccnc12 (stereo not drawn),inactive
15,CC1Nc2ccccc2C(=O)N1NS(=O)(=O)c1ccccc1 (stereo not drawn),inactive
16,CSc1nnc2ccc(-c3cccs3)nn12,inactive
17,COc1ccc(CC(=O)Nc2ccc(C(=O)Nc3nccs3)cc2)cc1OC,inactive
18,COc1cc(/C=N/NC(=O)CN(Cc2ccco2)S(=O)(=O)c2ccccc2)ccc1O,inactive
19,O=C(CSc1nnc(-c2ccccc2)c(-c2ccccc2)n1)N1CCc2ccccc21,inactive
20,CC1=C2C(CCS2(=O)=O)CC2(C1)C(=O)OC(C)(C)OC2=O (stereo not drawn),inactive
21,O=C(/C=C\c1ccc(-c2ccccc2)o1)c1ccccc1,inactive
22,CNc1ccc(Br)cc(C(=O)/C=C/c2ccc(OC)cc2OC)c1=O,inactive
23,CCN1CCN(c2cc(C)c3cc(NC(=S)N4CCN(c5ccc(F)cc5)CC4)ccc3n2)CC1,inactive
24,O=C(CNC(=O)c1ccc(S(=O)(=O)N2CCCC2)cc1)N/N=C/c1ccc(Cl)cc1Cl,inactive

row,SMILES,percent span (inhibition)
1,CN1C2C=C3C(C#N)=C(N)C(C#N)(C#N)[C@@H](c4ccsc4)[C@@H]3C1CC2 (stereo partly drawn),inactive
2,Cc1cc(-c2nnc3n2N=C(c2ccc(-c4ccccc4)cc2)CS3)n[nH]1,inactive
3,O=C(Nc1cccc(Cl)c1)Nc1ccc(Cl)cn1,inactive
4,CN(CC(=O)O/N=C(\N)c1ccc([N+](=O)[O-])cc1)S(=O)(=O)c1ccccc1,inactive
5,Fc1cccc(Nc2nc(-c3ccncc3)nc3ccccc23)c1,inactive
6,COC(=O)c1ccc(/C=N/NC(=O)CC(=O)NCc2cccnc2)cc1,inactive
7,COc1ccccc1OCc1ccc(C(=O)Nc2ccccc2F)cc1,inactive
8,O=C(CSc1nnc(Cc2ccccc2)o1)NCc1ccco1,inactive
9,CC(C)=C1C(=O)NN(c2ccc(C)c(Cl)c2)C1=O,inactive
10,CCN1/C(=C/c2ccc3cc(C)cc(C)c3[n+]2CC)Sc2cc(C)ccc21,inactive
11,CCOc1c(Cl)cc(CNc2ccc(N3CCCC3)cc2)cc1OC,inactive
12,O=C(Oc1ccc(-c2cnc3ccccc3n2)cc1)c1cccc([N+](=O)[O-])c1,inactive
13,O=C(C1=NN[C@@H]2C(=O)N(c3cccc(F)c3)C(=O)[C@H]12)c1ccc2ccccc2n1,inactive
14,CN(Cc1ccccc1)c1nc2c(c(=O)[nH]c(=O)n2C)n1C,inactive
15,COc1ccc(CC(=O)Nc2ccccc2Oc2ccccc2)cc1,inactive
16,O=C(OCc1nc2ccccc2[nH]1)C12CC3CC(CC(C3)C1)C2,inactive
17,CC(NC(=O)Nc1ccccn1)N1C(=O)C2C3C=CC(C3)C2C1=O (stereo not drawn),inactive
18,CCn1c(SCC(=O)Nc2ccc(C)cc2)nnc1-c1ccc(O)cc1,inactive
19,S=C1NC2=C(CCC/C2=C\c2ccccc2)C(c2ccccc2)N1 (stereo not drawn),inactive
20,Cc1cc(-c2csc(N)n2)c(C)n1CCc1ccccc1,inactive
21,Cc1cc(-c2nnc(CCC(=O)NC(C)c3cccc4ccccc34)o2)no1 (stereo not drawn),inactive
22,CCCCc1ccc(NC(=S)NCc2ccc(OC)cc2)cc1,inactive
23,Nc1ccc(N2CCN(CCCCN3C(=O)C4CCCN4C3=O)CC2)cc1 (stereo not drawn),inactive
24,COc1cccc2c(SCC(=O)N/N=C/c3ccc(O)cc3O)cc(C)nc12,inactive

row,SMILES,percent span (inhibition)
1,O=C(Nc1cccc(Cl)c1)Nc1ccnc(-c2cccnc2)n1,inactive
2,COc1cc2[nH]c(=S)nc(NCCCOC(C)C)c2cc1OC,inactive
3,CCCCC(C(=O)OCC)C(N)Cc1ccc(F)cc1 (stereo not drawn),inactive
4,CC(CCc1ccccc1)NC(=O)C1CCN(S(=O)(=O)N2CCCCC2)CC1 (stereo not drawn),inactive
5,Cc1ccc(-n2[nH]c(C)c(/C=N/Nc3ccc([N+](=O)[O-])cc3[N+](=O)[O-])c2=O)cc1C,inactive
6,Cc1ccc(NC(=O)c2cc(S(=O)(=O)NCCC3=CCCCC3)ccc2F)cc1F,inactive
7,Cc1ccc2c(C)c(C(=O)Nc3nnc(C)s3)oc2c1,inactive
8,CC(C)COC(=O)/C(C#N)=C/c1cn(Cc2ccccc2)c2ccccc12,inactive
9,c1csc(C2=Nn3c(nnc3-c3ccncc3)SC2)c1,inactive
10,O=C(NCCCN1CCN(CCCNC(=O)c2cc([N+](=O)[O-])ccc2Cl)CC1)c1cc([N+](=O)[O-])ccc1Cl,inactive
11,CCOc1ncccc1C(=O)OC(C)C(=O)Nc1ccc(CC)cc1 (stereo not drawn),inactive
12,CN(Cc1cccs1)C(=O)CCc1c[nH]c2ccccc12,inactive
13,CCSc1nnc(NC(=O)c2c(-c3ccccc3Cl)noc2C)s1,inactive
14,CCN(CC)c1ccc(NC(=O)c2cccc(C)c2)cc1S(=O)(=O)Nc1ccccc1OC,inactive
15,O=C(CSc1ccc2nnc(-c3ccccn3)n2n1)Nc1nccs1,inactive
16,CCOc1cc(/C=C2/N=C(C)C(C(=O)OC)=C2O)ccc1O,inactive
17,Cc1ccccc1/C=N/Nc1ccnc2cc(Cl)ccc12,inactive
18,c1ccc(-c2nc(N3CCCCC3)nc3ccccc23)cc1,inactive
19,CC1(C)SC(=S)N(NC(=O)Nc2ccccc2)C1N(O)C(=O)Nc1cccc2ccccc12 (stereo not drawn),inactive
20,CCC(CC)C(=O)Nc1cccc(SC)c1,inactive
21,Cc1ccc(/C=N/N(C)C2=NS(=O)(=O)c3ccccc32)o1,inactive
22,COc1ccc(COC(=O)NNC(=O)c2ccccc2Cl)cc1,inactive
23,Cn1cccc1CC(=O)N/N=C\c1ccccc1,inactive
24,O=C(CSc1nnc(-c2ccco2)n1Cc1ccccc1)c1ccccc1,inactive

row,SMILES,percent span (inhibition)
1,O=C(CSc1nnc(-c2cccs2)n1Cc1ccco1)c1ccc2c(c1)OCO2,inactive
2,COc1ccc(OC)c(NC(=O)CCCN2C(=S)NC(C)(C)CC2C)c1 (stereo not drawn),inactive
3,COC(=O)CCC(=O)Nc1sc(C)c(C)c1C(N)=O,inactive
4,Cc1nnc(NCc2n[nH]c(=O)c3ccccc23)c2ccccc12,inactive
5,N/C(=N\N=C/c1ccc(Br)cc1)N/N=C\c1ccc(Br)cc1,inactive
6,COc1ccc(S(=O)(=O)NCCSc2ccccc2)cc1OC,inactive
7,O=C(c1cc(=O)c2ccccc2o1)N1CCN(c2ccccc2F)CC1,inactive
8,COc1cc(/C=C2\S/C(=N/S(=O)(=O)c3ccc(C)cc3)NC2=O)c([N+](=O)[O-])cc1OC,inactive
9,COc1ccc(-c2csc(NC(=O)/C(N=Nc3ccccc3)=C(\C)O)n2)cc1,inactive
10,C=CCn1c(C)cc(-c2csc(NC)n2)c1C,inactive
11,O=C(NCCc1ccccc1)c1ccc2nc(-c3ccco3)c(-c3ccco3)nc2c1,inactive
12,Cc1ccc(C2=N/C(=C/c3cccs3)C(=O)N2Nc2ccccc2)cc1,inactive
13,Fc1ccc(Cn2nnnc2C(c2ccc(Cl)cc2)N2CCSCC2)cc1 (stereo not drawn),inactive
14,Cc1ccc(/C=N/NC(=O)CSc2nnc(-c3ccc(Cl)cc3)n2-c2ccccc2)o1,inactive
15,NNC(=O)COc1ccccc1F,inactive
16,CCCOc1ccc(-c2c(C(=O)N/N=C/c3ccc(OC)cc3)nnn2-c2nonc2N)cc1,inactive
17,COc1ccccc1N(C)S(=O)(=O)c1ccc(C(=O)OCC(N)=O)cc1,inactive
18,Cc1ccc(OCc2cn3cccnc3n2)cc1,inactive
19,O=C1c2ccccc2-c2onc3ccc(NCc4ccco4)c1c23,inactive
20,CN=c1scc(C)n1/N=C/c1ccc(O)c(O)c1O,inactive
21,COc1ccc(OC)c(Nc2ccc(C(=O)O)cc2[N+](=O)[O-])c1,inactive
22,CC(=O)N1CCN(C(=O)c2ccc(-n3c(C)ccc3C)cc2)CC1,inactive
23,O=S1(=O)N=C(N(CCO)/N=C/c2ccccc2)c2ccccc21,inactive
24,O=C1/C(=C/c2cccs2)Sc2ccccc21,inactive
